ChEMBL document CHEMBL1201862, “PubChem BioAssay data set” (2004)
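Dose response: 5 concentrations. Exposure: 48 h. Format: 96-well plates. Endpoint: linear interpolation; highest concentration if not reached. GI50 is the concentration that inhibits growth by half.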 The source made the active and inactive calls. Rule as the data show it: active = GI50 up to about 1.1 µM and inactive = higher. Where a SMILES comes first, the peptide text is derived from it. The star is where a group is joined. Cbz = O=C(OCc1ccccc1)*

Key:
Experiment in all cases: NCI-60 cell line screen, 48 h
HCC 2998 = tested on: HCC 2998
HOP-62 = tested on: HOP-62
KM12 = tested on: KM12
MCF7 = tested on: MCF7
MDA-MB-435 = tested on: MDA-MB-435
MDA-N = tested on: MDA-N
NCI-H23 = tested on: NCI-H23
NCI-H522 = tested on: NCI-H522
OVCAR-3 = tested on: OVCAR-3
OVCAR-8 = tested on: OVCAR-8
PC-3 = tested on: PC-3
RPMI-8226 = tested on: RPMI-8226
SF-539 = tested on: SF-539
SNB-75 = tested on: SNB-75
SR = tested on: SR
TK-10 = tested on: TK-10
ACHN = tested on: ACHN
CAKI-1 = tested on: CAKI-1
NCI-H226 = tested on: NCI-H226
A498 = tested on: A498

Measured: GI50

Cc1cccc2c1Oc1cc(Cl)ccc1C2NC(=O)CCN1CCCCC1 (centres undefined)
inactive: HCC 2998 15 µM | HOP-62 14.3 µM | KM12 16.3 µM | MCF7 17.5 µM | MDA-MB-435 16 µM | MDA-N 16.3 µM | NCI-H23 19.1 µM | NCI-H522 16.9 µM | OVCAR-3 > 10 µM | OVCAR-8 16.3 µM | PC-3 14.6 µM | RPMI-8226 25 µM | SF-539 16.7 µM | SNB-75 14.5 µM | SR 16.2 µM | TK-10 15.8 µM

NC(=O)C(N)CC12CC3CC(CC(C3)C1)C2 (centres undefined)
inactive: ACHN 32.4 µM | CAKI-1 27.3 µM | HCC 2998 21.6 µM | KM12 20.1 µM | MCF7 20 µM | MDA-MB-435 16 µM | MDA-N 13.6 µM | NCI-H23 25.4 µM | NCI-H522 15 µM | OVCAR-8 23.9 µM | PC-3 18.2 µM | RPMI-8226 19.6 µM | SNB-75 32.7 µM | SR 17.2 µM | TK-10 29.6 µM

Nc1ncnc2c1nnn2C1CCC(CP(=O)(O)O)C1 (centres undefined)
inactive: ACHN > 100 µM | CAKI-1 > 100 µM | HCC 2998 > 100 µM | HOP-62 > 100 µM | KM12 > 100 µM | MCF7 > 100 µM | MDA-MB-435 > 100 µM | MDA-N > 100 µM | NCI-H226 > 100 µM | NCI-H23 > 100 µM | OVCAR-3 > 100 µM | OVCAR-8 > 100 µM | PC-3 > 100 µM | RPMI-8226 > 100 µM | SF-539 > 100 µM | SNB-75 > 100 µM | SR > 100 µM | TK-10 > 100 µM

S=C1CC(c2ccccc2)Sc2ccc(Cl)cc2N1 (centres undefined)
inactive: ACHN 58.1 µM | CAKI-1 63.7 µM | HOP-62 45.6 µM | KM12 56.6 µM | MCF7 36.2 µM | MDA-MB-435 13.4 µM | MDA-N 38.8 µM | NCI-H226 > 100 µM | NCI-H23 30.8 µM | NCI-H522 25.8 µM | OVCAR-3 46.5 µM | OVCAR-8 43.4 µM | PC-3 4.56 µM | RPMI-8226 90.4 µM | SNB-75 30 µM | SR 20.8 µM | TK-10 36.8 µM

Clc1ccc(Cc2nc3cc(Cl)ccc3o2)cc1
inactive: ACHN 35.6 µM | CAKI-1 30.6 µM | HCC 2998 21.6 µM | HOP-62 17.4 µM | KM12 29.7 µM | MCF7 38.5 µM | MDA-MB-435 28.7 µM | MDA-N 36.1 µM | NCI-H226 29.1 µM | NCI-H23 33 µM | NCI-H522 21.7 µM | OVCAR-3 22.4 µM | OVCAR-8 32.3 µM | PC-3 32.4 µM | RPMI-8226 30.9 µM | SF-539 30.1 µM | SR 30.7 µM | TK-10 52 µM

COC(=O)[C@](C)(Cc1ccccc1)NC(=O)[C@@H](C)N1[C@@H](c2ccccc2)COC1(C)C
inactive: A498 99.8 µM | ACHN 36.7 µM | CAKI-1 82.2 µM | HOP-62 > 100 µM | KM12 22.2 µM | MCF7 52 µM | MDA-MB-435 48.8 µM | MDA-N 44.2 µM | NCI-H226 56.2 µM | NCI-H23 51.9 µM | NCI-H522 13.1 µM | OVCAR-3 37.6 µM | OVCAR-8 78.5 µM | PC-3 29.1 µM | RPMI-8226 39.5 µM | SF-539 > 100 µM | SNB-75 14.4 µM | SR 27.5 µM | TK-10 > 100 µM

O=C1c2cc([N+](=O)[O-])cnc2S(=O)(=O)N1c1ccc(Br)cc1
inactive: ACHN > 100 µM | CAKI-1 > 100 µM | HCC 2998 > 100 µM | HOP-62 > 100 µM | KM12 > 100 µM | MCF7 > 100 µM | MDA-MB-435 > 100 µM | MDA-N > 100 µM | NCI-H226 > 100 µM | NCI-H23 > 100 µM | NCI-H522 > 100 µM | OVCAR-3 > 100 µM | OVCAR-8 > 100 µM | PC-3 > 100 µM | RPMI-8226 > 100 µM | SF-539 > 100 µM | SNB-75 > 100 µM | SR > 100 µM | TK-10 > 100 µM

c1ccc2[nH]c(C3CCCCO3)nc2c1 (centres undefined)
inactive: ACHN > 100 µM | CAKI-1 > 100 µM | HCC 2998 > 100 µM | HOP-62 > 100 µM | KM12 50.4 µM | MCF7 > 100 µM | MDA-MB-435 > 100 µM | MDA-N > 100 µM | NCI-H226 6.41 µM | NCI-H23 > 100 µM | NCI-H522 > 100 µM | OVCAR-3 > 100 µM | OVCAR-8 > 100 µM | PC-3 > 100 µM | RPMI-8226 > 100 µM | SF-539 > 100 µM | SNB-75 > 100 µM | SR > 100 µM | TK-10 > 100 µM

CCOC(=O)N1CCC2(CC1)CC(=O)N(Nc1ccccc1)C2=O
inactive: A498 > 100 µM | ACHN 9.71 µM | CAKI-1 > 100 µM | HCC 2998 > 100 µM | HOP-62 > 100 µM | KM12 92.7 µM | MCF7 90.6 µM | MDA-MB-435 30.8 µM | MDA-N 78.3 µM | NCI-H226 > 100 µM | NCI-H23 > 100 µM | OVCAR-3 > 100 µM | OVCAR-8 > 100 µM | PC-3 40.6 µM | RPMI-8226 > 100 µM | SF-539 27.5 µM | SNB-75 > 100 µM | SR 32.1 µM | TK-10 > 100 µM

O=C(CN1CCOCC1)c1ccc2c(c1)oc(=O)n2CCN1CCCCC1
active: SNB-75 0.179 µM
inactive: A498 > 100 µM | ACHN > 100 µM | CAKI-1 > 100 µM | HOP-62 > 100 µM | KM12 > 100 µM | MCF7 > 100 µM | MDA-MB-435 > 100 µM | MDA-N > 100 µM | NCI-H226 > 100 µM | NCI-H23 > 100 µM | OVCAR-3 > 100 µM | OVCAR-8 > 100 µM | PC-3 > 100 µM | RPMI-8226 > 100 µM | SF-539 > 100 µM | SR > 100 µM | TK-10 > 100 µM

COc1ccc(NC(=O)c2cc(NC(=O)/C=C/c3ccccc3)c(OC)c(OC)c2)cc1
inactive: A498 53.6 µM | ACHN 4.5 µM | CAKI-1 8.73 µM | HOP-62 31.5 µM | KM12 3.83 µM | MCF7 3.69 µM | MDA-MB-435 3.07 µM | MDA-N 3.1 µM | NCI-H226 6.64 µM | NCI-H23 > 100 µM | OVCAR-3 60.1 µM | PC-3 6.41 µM | RPMI-8226 3.83 µM | SF-539 5.38 µM | SNB-75 2.26 µM | SR 4.03 µM | TK-10 > 100 µM

NC(Cc1ccc(S(=O)(=O)O)cc1)C(=O)NC(Cc1ccc(S(=O)(=O)O)cc1)C(=O)NC(Cc1ccc(S(=O)(=O)O)cc1)C(=O)NC(Cc1ccc(S(=O)(=O)O)cc1)C(=O)O (centres undefined)
inactive: A498 > 100 µM | ACHN > 100 µM | CAKI-1 > 100 µM | HCC 2998 > 100 µM | HOP-62 > 100 µM | KM12 3.92 µM | MCF7 46.1 µM | MDA-MB-435 > 100 µM | MDA-N > 100 µM | NCI-H226 > 100 µM | NCI-H23 > 100 µM | NCI-H522 > 100 µM | OVCAR-3 > 100 µM | OVCAR-8 > 100 µM | PC-3 > 100 µM | RPMI-8226 > 100 µM | SF-539 > 100 µM | SNB-75 > 100 µM | TK-10 > 100 µM

CCCC(=O)NC(Nc1ccc(S(=O)(=O)Nc2cc(C)on2)cc1)(C(=O)OCC)C(F)(F)F (centres undefined)
inactive: ACHN > 100 µM | CAKI-1 > 100 µM | HCC 2998 > 100 µM | HOP-62 > 100 µM | KM12 > 100 µM | MCF7 > 100 µM | MDA-MB-435 > 100 µM | MDA-N > 100 µM | NCI-H226 > 100 µM | NCI-H23 > 100 µM | NCI-H522 > 100 µM | OVCAR-3 > 100 µM | OVCAR-8 > 100 µM | PC-3 > 100 µM | RPMI-8226 > 100 µM | SF-539 > 100 µM | SNB-75 > 100 µM | SR 9.75 µM | TK-10 > 100 µM

CCOC(=O)CNC(=O)C(C)NC(=O)C(NC(=O)OCc1ccccc1)C(C)C (stereo not drawn) (Cbz-Val-Ala-Gly-OEt; configuration not given here)
inactive: ACHN > 100 µM | CAKI-1 > 100 µM | HCC 2998 90.2 µM | HOP-62 > 100 µM | KM12 > 100 µM | MCF7 > 100 µM | MDA-MB-435 > 100 µM | MDA-N > 100 µM | NCI-H226 > 10 µM | NCI-H23 > 100 µM | NCI-H522 97.5 µM | OVCAR-3 > 100 µM | OVCAR-8 > 100 µM | PC-3 > 100 µM | RPMI-8226 > 100 µM | SF-539 > 100 µM | SNB-75 > 100 µM | SR > 100 µM | TK-10 > 100 µM

COc1cc(O)c2c(O)c3c(=O)oc(C)cc3c(OC)c2c1 [PAEPALANTINE]
inactive: A498 61.7 µM | ACHN 23.7 µM | CAKI-1 31 µM | HOP-62 30.3 µM | KM12 27.5 µM | MCF7 32.6 µM | MDA-MB-435 18.3 µM | MDA-N 27.4 µM | NCI-H23 23.6 µM | NCI-H522 35.4 µM | OVCAR-3 27.2 µM | OVCAR-8 27.2 µM | PC-3 28.4 µM | RPMI-8226 20 µM | SF-539 21 µM | SR 26.1 µM | TK-10 29 µM
